According to patent US9365597B2, “Mitochondria-targeted inhibitors of cytochrome c peroxidase for protection from apoptosis” (Brock University, priority 2011, dated 2016):

Key:
[1] = Compartmentalization of TPP-IOA in mouse embryonic cells and subcellular fractions (HPLC, ESI-MS); assay type: in vitro ADME
Experimental: Mitochondrial fractions were isolated by differential centrifugation. Briefly, cells were suspended in mitochondria isolation buffer (pH 7.4; MIB) containing mannitol (210 mM), sucrose (70 mM), HEPES (10 mM), EDTA (1 mM) and protease inhibitor cocktail. Cells were lysed by Dounce homogenization. Unbroken cells, nuclei and debris were removed by 5 min centrifugation at 600×g at 4° C. Mitochondria, obtained by centrifugation at 10,000×g (10 min), were washed once with MIB.
Mouse embryonic cells (2×10^6) were seeded in 100 mm cell culture dishes and let attached overnight. Thereafter, the cells were incubated with TPP-IOA (10 μM) in PBS at 37° C. for 30 min, washed with PBS (2×5 mL), and collected by trypsinization. Mitochondria were isolated as described above. In mitochondria, TPP-IOA was analyzed by HPLC after precipitation of proteins with CH3CN (final concentration, 70%; incubation time, 15 min at 4° C.; centrifugation, 5 min at 10,000×g). TPP-IOA from cytosolic fractions was extracted by following the protocol of Folch et al.^37 and then re-dissolved in a minimal volume of methanol. […] Detection of TPP-IOA was performed with a SPD-M10A photodiode array detector (Shimadzu, Kyoto, Japan) following the specific UV spectrum of the triphenylphosphonium function (λmax=224, 264 and 274 nm; FIG. 4A, Inset). TPP-IOA was eluted as single peak with retention time of 4 min.

[2] = Hydrolysis of TPP-IOA by cytosol and mitochondrial fractions of mouse embryonic cells (HPLC); assay type: in vitro ADME
Experimental: Incubations were carried out in 0.1 M phosphate buffer (pH 7.0) for 25 min at 37° C.; and reaction was stopped with CH3CN denatured proteins were centrifuged, and the supernatant was subjected to HPLC analysis. The volume of samples was 1 ml.
To test this, assessments of esterase activity of mitochondria and cytosolic fractions isolated from mouse embryonic cells were performed based on HPLC measurements of TPP-IOA (FIG. 4). […] Thus, both TPP-IOA and its de-esterifed form, IOA, could be present in mitochondria of mouse embryonic cells.

[3] = system: mouse lung endothelial cells; assay: Rotenone-induced apoptosis in mouse lung endothelial cells (PS externalization); assay type: cell-based; conditions: 2 μM rotenone, TPP-IOA 2.5, 5 μM, 48 h
Experimental: Mouse embryonic cells (courtesy of Dr X. Wang, University of Texas, Dallas) were cultured in Dulbecco's Modified Eagle Medium (DMEM) supplemented with 15% fetal bovine serum (FBS), 25 mM Hepes, 50 mg per liter uridine, 110 mg per liter pyruvate, 2 mM glutamine, 1× nonessential amino acids, 50 μM β-mercaptoethanol, 0.5×10^6 Upper liter mouse leukaemia inhibitory factor, 100 Upper liter penicillin, and 100 mg per liter streptomycin in a humidified atmosphere of 5% CO2, 95% air at 37° C. Mouse lung endothelial cells were obtained as previously described^29. Briefly, lungs were flushed with Hank's balanced salt solution (HBSS) containing 10 U ml^−1 heparin, then homogenized and digested in type I collagenase using a gentle MACs dissociator (Miltenyi). […] At approximately passage 2, cells were incubated with fluorescently labelled diacetylated low-density lipoprotein (LDL) followed by fluorescence-activated cell sorting (FACS) for further purification. The enriched PECAM and diacetylated LDL population was sub-cultured on a collagen/gelatin matrix in 2% O2, 5% CO2, 93% nitrogen in a Coy Hypoxic Glove Box/Chamber in Opti-MEM (Gibco), 10% FBS, 2 mM glutamine, 0.2% retinal-derived growth factor (Vec Technologies), 10 U ml^−1 heparin, 0.1 mM non-essential amino acid supplement (Gibco) and 55 μM β-mercaptoethanol (Counted as passage 3). […]

Question: What does the source list for `CCCCCCC(C/C=C\CCCCCCCC(=O)OCCC[P+](c1ccccc1)(c1ccccc1)c1ccccc1)n1ccnc1.[Br-]` (centres unmarked) [TPP-IOA]?
Answer: concentration of TPP-IOA in mitochondria ([1]; assuming mitochondria are ~15-25% of cell volume): ~5000 µM; subcellular distribution of TPP-IOA ([1]; mouse embryonic cells, 10 μM, 30 min): most of the TPP-IOA was present in mitochondria; hydrolysis rate in mitochondria ([2]; 1 mg protein/ml, pH 7.0, 37° C.): comparable to that in the cytosolic fraction; hydrolysis of the ester bond by endogenous esterases ([2]; mitochondria and cytosol of mouse embryonic cells): hydrolysis of TPP-IOA takes place in both mitochondria and the cytosol; inhibition of rotenone-induced apoptosis [3]: effectively inhibited apoptosis
